Common to all, as to experiment: Mutant β-galactosidase activity in model cells, 4 days culture
Assay type in all cases: cell-based

The target of assay [1] is T1, human mutant β-galactosidase T82M (Homo sapiens, UniProt P16278, T82M).
T1 construct: expressed in transfected cells; host or cells: SV40-immortalized skin fibroblasts of a β-galactosidase-deficient knockout mouse
T1 sequence (P16278 29-677 T82M): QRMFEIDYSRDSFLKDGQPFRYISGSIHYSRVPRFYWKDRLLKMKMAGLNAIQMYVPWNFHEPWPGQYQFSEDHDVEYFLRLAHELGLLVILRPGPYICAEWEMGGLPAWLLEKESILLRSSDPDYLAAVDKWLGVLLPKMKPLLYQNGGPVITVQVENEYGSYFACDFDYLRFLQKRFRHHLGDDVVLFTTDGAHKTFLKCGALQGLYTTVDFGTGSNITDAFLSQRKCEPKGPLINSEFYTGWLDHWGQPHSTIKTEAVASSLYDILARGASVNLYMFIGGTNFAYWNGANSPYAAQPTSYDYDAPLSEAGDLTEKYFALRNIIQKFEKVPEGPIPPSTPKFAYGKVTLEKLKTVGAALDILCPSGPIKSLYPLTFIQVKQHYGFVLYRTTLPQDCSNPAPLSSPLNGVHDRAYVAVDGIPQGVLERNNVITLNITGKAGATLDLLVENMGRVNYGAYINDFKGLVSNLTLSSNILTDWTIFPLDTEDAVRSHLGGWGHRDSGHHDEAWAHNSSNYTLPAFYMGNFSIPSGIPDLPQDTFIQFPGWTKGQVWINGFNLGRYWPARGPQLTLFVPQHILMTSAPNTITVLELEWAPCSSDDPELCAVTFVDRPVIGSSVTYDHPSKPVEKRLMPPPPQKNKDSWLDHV

The target of assay [2] is T2, human mutant β-galactosidase Y83H (Homo sapiens, UniProt P16278, Y83H).
T2 construct: expressed in transfected cells; host or cells: SV40-immortalized skin fibroblasts of a β-galactosidase-deficient knockout mouse
T2 sequence (P16278 29-677 Y83H): T1 sequence (P16278 29-677 T82M) with M54T, Y55H

In assay [3] the target is T3, human mutant β-galactosidase W273L (Homo sapiens, UniProt P16278, W273L).
T3 construct: expressed in transfected cells; host or cells: SV40-immortalized skin fibroblasts of a β-galactosidase-deficient knockout mouse
T3 sequence (P16278 29-677 W273L): T1 sequence (P16278 29-677 T82M) with M54T, W245L

Each structure is given as a SMILES string. Substitutions are numbered along the chain they refer to.

In the case of `CCCCN1C[C@H](O)[C@@H](O)[C@@H](O)[C@H]1CO` [Control, N-(n-butyl)-deoxygalactonojirimycin, reference compound], the “enzyme activity, Control” value in assay [1] (transferred gene T82M, control substance 0.5 mM NB-DGJ) is listed as 0.67; in assay [2] (transferred gene Y83H, control substance 0.5 mM NB-DGJ), 8.89; in assay [3] (transferred gene W273L, control substance 0.5 mM NB-DGJ), 11.83.
As to `CCCCCCCCN[C@@H]1C=C(CO)[C@H](O)C(O)[C@@H]1O` (stereo partly drawn) [Substance 18, N-octyl-5a-carba-α-L-arabino-hexo-5(5a)-enopyranosylamine], the “Relative ratio (×100%)” value in assay [1] (T82M, substance 18 vs control) is 0.88 ×100%; in assay [2] (Y83H, substance 18 vs control), 2.27 ×100%; in assay [3] (W273L, substance 18 vs control) it was 1.50 ×100%. The enzyme activity in assay [1] (transferred gene T82M, 0.2 μM, 4 days) came to 0.59; in assay [2] (transferred gene Y83H, 0.2 μM, 4 days) it was 20.16; in assay [3] (transferred gene W273L, 0.2 μM, 4 days), 17.71. Also, the “enzyme activity increased in comparison with the control” value in assay [2] (Y83H, 0.2 μM) was not below 150%; in assay [3] (W273L, 0.2 μM) it was not below 150%.
